Data as given in patent US20090118271A1, “Preventive or Therapeutic Agents for Pancreatic Cancer, Ovarian Cancer, or Liver Cancer Comprising a Novel Water-Soluble Prodrug” (CHUGAI SEIYAKU KABUSHIKI KAISHA, priority 2005, published 2009).

Assays:
Type in all cases: in vivo
[1] = tested on: human pancreatic cancer cell line AsPC-1; assay: Antitumor effect in AsPC-1 tumor-bearing nude mice; conditions: AsPC-1 s.c. xenograft, BALB/c nude mice, 60 mg/kg/inj. (47 in terms of free base) intravenously, once a week for three weeks
Method: Antitumor effects were determined for representative examples of the compound groups of the present invention. Antitumor effects were determined using tumor-bearing mice generated by subcutaneous transplantation of human pancreatic cancer cell line AsPC-1 obtained from American Type Culture Collection (Virginia, USA) into the right ventral neck of BALB/c nude mice purchased from Japan Charles River.
After a one-week quarantine period, the purchased nude mice were subjected to subcutaneous transplantation of 4.8×10^6 AsPC-1 cells to their right ventral neck. Mice with a tumor size reaching 200 mm^3 or so were subjected to the experiment.
(§1) The compounds were dissolved in 1 mM citric acid/physiological saline (pH3.1-3.2), and were administered intravenously. The administration was carried out once a week for three weeks, for a total of three administrations. The antitumor effect was determined as tumor growth inhibition (TGI), using the following equation.
(§2) Tumor growth inhibition (TGI) (%)={(1−amount of tumor growth in the group treated with the drug/amount of tumor growth in the control group)×100}

[2] = tested on: human ovarian cancer cell line SK-OV-3; assay: Antitumor effect in SK-OV-3 tumor-bearing nude mice; conditions: SK-OV-3 s.c. xenograft, BALB/c nude mice, 60 mg/kg/inj. (47 in terms of free base) intravenously, once a week for three weeks
Method: Antitumor effects were determined for representative examples of the compound groups of the present invention. Antitumor effects were determined using tumor-bearing mice generated by subcutaneous transplantation of the human ovarian cancer cell line SK-OV-3 obtained from American Type Culture Collection (Virginia, USA) into the right ventral neck of BALB/c nude mice purchased from Japan Charles River.
After a six-day quarantine period, the purchased nude mice were subjected to subcutaneous transplantation of a 2-3 mm square piece of the SK-OV-3 tumor to their right ventral neck. Mice with a tumor size reaching 210 mm^3 or so were subjected to the experiment.
(§3) The compounds were dissolved in physiological saline, and were administered intravenously. The administration was carried out once a week for three weeks, for a total of three administrations. The antitumor effect was determined as tumor growth inhibition (TGI), using the following equation.
as §2

[3] = tested on: human pancreatic cancer cell line BxPC-3; assay: Antitumor effect in BxPC-3 tumor-bearing nude mice; conditions: BxPC-3 s.c. xenograft, BALB/c nude mice, 66 mg/kg/inj. (47 in terms of free base) intravenously, once a week for three weeks
Method: Antitumor effects were determined for representative examples of the compound groups of the present invention. Antitumor effects were determined using tumor-bearing mice generated by subcutaneous transplantation of human pancreatic cancer cell line BxPC-3 obtained from American Type Culture Collection (Virginia, USA) into the right ventral neck of BALB/c nude mice purchased from Japan Charles River.
After a seven-day quarantine period, the purchased nude mice were subjected to subcutaneous transplantation of 9×10^6 BxPC-3 cells to their right ventral neck. Mice with a tumor size reaching 400 mm^3 or so were subjected to the experiment.
as §1, §2

[4] = tested on: human ovarian cancer cell line PA-1; assay: Antitumor effect in PA-1 tumor-bearing nude mice; conditions: PA-1 s.c. xenograft, BALB/c nude mice, 40 mg/kg/inj. (32 in terms of free base) intravenously, once a week for three weeks
Method: Antitumor effects were determined for representative examples of the compound groups of the present invention. Antitumor effects were determined using tumor-bearing mice generated by the subcutaneous transplantation of human ovarian cancer cell line PA-1 obtained from American Type Culture Collection (Virginia, USA) into the right ventral neck of BALB/c nude mice purchased from Japan Charles River.
After a one-week quarantine period, the purchased nude mice were subjected to subcutaneous transplantation of 9.8×10^6 PA-1 cells to their right ventral neck. Mice with a tumor size reaching 200 mm^3 or so were subjected to the experiment.
as §3
Tumor growth inhibition (TGI) (%) {(1−amount of tumor growth in the group treated with the drug/amount of tumor growth in the control group)×100}

[5] = tested on: human pancreatic cancer cell line Capan-1; assay: Antitumor effect in Capan-1 tumor-bearing nude mice; conditions: Capan-1 s.c. xenograft, BALB/c nude mice, 66 mg/kg/inj. (47 in terms of free base) intravenously, once a week for three weeks
Method: Antitumor effects were determined for representative examples of the compound groups of the present invention. Antitumor effects were determined using tumor-bearing mice generated by subcutaneous transplantation of human pancreatic cancer cell line Capan-1 obtained from American Type Culture Collection (Virginia, USA) into the right ventral neck of BALB/c nude mice purchased from Japan Charles River.
After a 19-day quarantine period, the purchased nude mice were subjected to subcutaneous transplantation of 10×10^6 Capan-1 cells to their right ventral neck. Mice with a tumor size reaching 260 mm^3 or so were subjected to the experiment.
as §1, §2

[6] = tested on: human liver cancer cell line PLC/PRF/5; assay: Antitumor effect in PLC/PRF/5 tumor-bearing nude mice; conditions: PLC/PRF/5 s.c. xenograft, BALB/c nude mice, 60 mg/kg/inj. (47 in terms of free base) intravenously, once a week for three weeks
Method: Antitumor effects were determined for representative examples of the compound groups of the present invention. Antitumor effects were determined using tumor-bearing mice generated by subcutaneous transplantation of human liver cancer cell line PLC/PRF/5 obtained from Human Science into the right ventral neck of BALB/c nude mice purchased from Japan Charles River.
After a one-week quarantine period, the purchased nude mice were subjected to subcutaneous transplantation of 20×10^6 PLC/PRF/5 cells to their right ventral neck. Mice with a tumor size reaching 200 mm^3 or so were subjected to the experiment.
as §3, §2

## CCCCCN1C=Nc2cccc3nc4c(c1c23)Cn1c-4cc2c(c1=O)COC(=O)[C@@]2(CC)OC(=O)CN(C)C(=O)CN.Cl [Compound 2A, (9S)-9-Ethyl-9-(glycyl-sarcosyloxy)-1-pentyl-1H,12H-pyrano[3″,4″:6′,7′]indolizino[1′,2′:6,5]pyrido[4,3,2-de]quinazoline-10,13(9H,15H)-dione Hydrochloride]
[1]
  TGI (%) on Day 21: 73%
[2]
  TGI (%) on Day 21: 52%
[3]; Day 14
  TGI (%) on Day 14: 55%
[3]; Day 21
  TGI (%) on Day 21: 47%
[4]
  TGI (%) on Day 21: 84%
[5]
  TGI (%) on Day 21: 122%
[6]
  TGI (%) on Day 21: 84%
